# In article PMC7396997, “Discovery of 4-Anilinoquinolinylchalcone Derivatives as Potential NRF2 Activators” (Molecules, 2020):
# Several values for one entry are separate records, joined by “and”; a condition that tells them apart may be missing. Equal entries are not always repeated. Where two headings read alike, the source gives them in different places.
# Columns and labels:
# [1] = Cytotoxicity, 72 h resazurin cell viability assay; assay type: cell-based, human; conditions: human
# Procedure: (§1) Cells were seeded in a 96-well plate contained 100 μL culture medium in triplicate and treated with several compounds for 72 h. At the assay time point, resazurin (Cayman Chemical) was added and further incubated for 4 h at 37 °C. Fluorescence of the reduced resazurin was measured as described previously.
# (§2) Figure 3 The cytotoxicity of 12b, 13b, and 14b in HaCaT cells. HaCaT cells were treated with indicated concentrations of these three compounds for 72 h. Cell viability was determined by a resazurin assay as described in the Materials and Methods section. Data presented as mean ± SD from three independent experiments.
# NRF2 [2] = assay: ARE-driven luciferase reporter assay (NRF2 activity) in HaCaT/ARE stable cells; assay type: cell-based, human; conditions: for Emax of NRF2 promoter activity / EC50: HaCaT/ARE cells, 18 h, dose-response; for EC50: read-out: EC50 of NRF2 promoter activity
# Source text: In this study, we used a stable ARE-driven reporter system to screen the potential NRF2 activators.
# HaCaT/ARE cells = assay: Cell viability (resazurin) in the reporter screen; conditions: for Cell Viability: 10 μM, in % (unit assumed)
# Procedure: Immortalized human keratinocytes HaCaT were cultured in the Dulbecco’s modified Eagle’s medium (DMEM; Gibco BRL, Grand Island, NY, USA) with 10% heat-inactivated fetal bovine serum (HyClone, Logan, UT, USA), penicillin (100 U/mL), and streptomycin (100 μg/mL) in a humidified incubator with 5% CO2. HaCaT/ARE stable cells were grown in DMEM supplemented with 100 μg/mL of hygromycin.
# HaCaT/ARE stable cells were seeded (1 × 10^4 cells/well) in a 96 well plate, then were treated with indicated concentrations of compounds for 18 h. At the assay time point, resazurin (Cayman Chemical, Ann Arbor, MI, USA) was added to a final concentration of 0.1 mg/mL and further incubated for 4 h at 37 °C. Fluorescence of the reduced resazurin (ex/em: 530 nm/590 nm) was measured from the culture supernatant by using a Synergy HT Multi-Mode Reader (BioTek, Winooski, VT, USA) to determine cell viability. The cells were then harvested for luciferase activity measurements according to the manufacturer’s protocol (Promega Corporation, Madison, WI, USA). Relative luciferase activity was calculated by normalizing luciferase activity to cell viability, and DMSO solvent control was used as 100% activity.
# GCLM and NQO1 = system: GCLM and NQO1; parameters: method as in PMID 21539383; conditions: small intestine; cited from earlier work
# HaCaT cells = assay: Cytotoxicity, 72 h resazurin cell viability assay; assay type: cell-based, human
# Procedure: as §1, §2
# NRF2 [3] = assay: Western blot of NRF2 protein in HaCaT cells; assay type: cell-based, human; conditions: 8 h
# Procedure: (§3) To further evaluate the effect of compound 13b on NRF2 activation, the mRNA level of NRF2 target genes were determined by real-time PCR.
# Cells were washed with PBS and harvested with RIPA lysis buffer (50 mM Tris (pH 7.5), 150 mM NaCl, 1% Tx-100) supplemented with protease and phosphatase inhibitors (1 mM PMSF, 10 μg/mL leupeptin, 50 μg/mL TLCK, 50 μg/mL TPCK, 1 μg/mL aprotinin, 1 mM NaF, 5 mM NaPPi, and 10 mM Na3VO4). The cell lysates were cleared via 10 min spins at 13,000 rpm, 4 °C. Protein concentrations were determined by a Bio-Rad Protein Assay (Bio-Rad, Hercules, CA, USA). Samples corresponded to 20 μg of protein were used for Western blot according to our previous publication. The following antibodies were used: anti-NRF2 (GeneTex, Irvine, CA, USA) and anti-GAPDH (Abcam, Cambridge, MA, USA).
# (§4) Figure 5 The compound 13b increased the NRF2 expression at the protein level in the HaCaT cell. (A) HaCaT cells were treated with indicated concentrations of compound 13b for 8 h. Protein expression of NRF2 was determined by Western blot. (B) HaCaT cells were treated with indicated concentrations of 13b for 18 h. Total RNA was isolated and submitted to reverse transcription and real-time PCR for the detection of the NRF2 mRNA level.
# NRF2 mRNA = assay: qRT-PCR of NRF2 mRNA in HaCaT cells; assay type: cell-based, human; conditions: 18 h, real-time PCR
# Procedure: as §3
# (§5) RNA was prepared by using the TRIzol Reagent (Thermo Scientific, Madison, WI, USA) and was reverse transcribed into cDNA using a TOOLs Easy Fast RT Kit (TOOLs Biotechnology, New Taipei City, Taiwan). PCR was performed on an ABI StepOne Plus System (Applied Biosystems, Foster City, CA, USA) using the KAPA SYBR® FAST qPCR Master Mix (2X) Kit (Sigma-Aldrich, St. Louis, MO, USA). The mRNA level was normalized using the glyceraldehyde 3-phosphate dehydrogenase (GAPDH) mRNA level as the standard. The following primers were used: NRF2 forward: 5′-[…] and reverse: 5′-[…]; HO1 forward: 5′-GCCAGCAACAAAGTGCAAG and reverse: 5′-[…]; NQO1 forward: 5′-[…] and reverse: 5′-[…]; GCLC forward: 5′-[…] and reverse: 5′-[…]; G6PD forward: 5′-CAACATCGCCTGCGTTA and reverse: 5′-CTTGACCTTCTCATCACGG; and GAPDH forward: 5′-[…] and reverse: 5′-[…].
# as §4
# [4] = system: NRF2 target genes (HO1, G6PD, GCLC); assay: qRT-PCR of NRF2 target genes in HaCaT cells; assay type: cell-based, human; conditions: 18 h, real-time PCR
# Procedure: as §3, §5
# Figure 4 Compound 13b increased the expression of NRF2 target genes in the HaCaT cell. HaCaT cells were treated with indicated concentrations of 13b for 18 h. Total RNA was isolated and submitted to reverse transcription and real-time PCR for the detection of the NRF2 target genes including HO1 (A), GLCL (B), G6PD (C), and NQO1 (D). Data are expressed as normalized mRNA level and presented as mean ± SD from three independent experiments. The asterisk (*) indicates a significant difference between 13b treated groups and control group (* p< 0.05, *** p< 0.001, one-way ANOVA).
# [5] = 10 μM, 24 h (b12; method b59 says 18 h), luciferase normalised to cell viability, DMSO control = 100%
compound,measurement,setting,value
"CC(=O)c1ccc(Nc2cc(/C=C/C(=O)c3ccccc3)nc3ccccc23)cc1 [12b, (E)-3-{4-[(4-acetylphenyl)amino]quinolin-2-yl}-1-phenylprop-2-en-1-one]",CC50 at 72 h,[1],9300 nM
same,Emax of NRF2 promoter activity,NRF2 [2],692.8±53.3%
same,activity at 10 µM,"NRF2 [2]; Homo sapiens, HaCaT, 10 μM, 24 h (b12; method b59 says 18 h), luciferase normalised to cell viability, DMSO control = 100%, read-out: % of Relative NRF2 Activity in HaCaT Cell",394%
same,EC50,NRF2 [2]; Homo sapiens,850 ± 40 nM
same,Cell Viability,HaCaT/ARE cells,71.2 ± 1.8
"COc1ccccc1C(=O)/C=C/c1ccccc1C(F)(F)F [Compound 1, (E)-1-(2-methoxyphenyl)-3-[2-(trifluoromethyl)phenyl]prop-2-en-1-one]",expression of GCLM compared to sulforaphane,GCLM and NQO1,3 fold
same,expression of NQO1 compared to sulforaphane,GCLM and NQO1,5 fold
(E)-3-{4-[(4-Acetylphenyl)amino]quinolin-2-yl}-1-(4-methoxyphenyl)prop-2-en-1-one [14b],CC50,HaCaT cells,28400 nM
same,% of Relative NRF2 Activity in HaCaT Cell,NRF2 [2]; [5],937% and 936.5 ± 39.8%
same,Emax of NRF2 promoter activity,NRF2 [2],748.5±73.6%
same,EC50,NRF2 [2],1580 ± 150 nM
(E)-3-{4-[(4-acetylphenyl)amino]quinolin-2-yl}-1-(4-fluorophenyl)prop-2-en-1-one [13b],CC50,"HaCaT cells; HaCaT cells, 72 h, read-out: CC50",> 100000 nM
same,expression of NRF2 protein,NRF2 [3],effectively enhance
same,mRNA of NRF2,NRF2 mRNA,without altering
same,% of Relative NRF2 Activity in HaCaT Cell,NRF2 [2]; [5],2205% and 2205.2 ± 144.9%
same,EC50,NRF2 [2],1950 nM
same,G6PD mRNA expression,[4],significantly increased
same,GCLC mRNA expression,[4],significantly increased
same,HO1 mRNA expression,[4],significantly increased
same,survival rate,HaCaT/ARE cells; 10 µM,96%
same,Cell Viability,HaCaT/ARE cells,95.7 ± 1.8
